Measured values taken from patent publication US20250313572A1, “MACROCYCLIC MCL-1 INHIBITORS AND METHODS OF USE” (AbbVie Inc., priority 2017, published 2025).
Where two headings read alike, the source gives them in different places. Marks after values point to notes of the source that are not given here.

Assays:
[1] = tested on: NCI-H929 human multiple myeloma tumor cell line; assay: NCI-H929 cell viability assay (CellTiter-Glo, 24 hours); assay type: cell-based
[2] = tested on: AMO-1 human multiple myeloma tumor cell line; assay: AMO-1 cell viability assay (CellTiter-Glo, 24 hours); assay type: cell-based
GST-MCL-1 = GST-MCL-1 (Homo sapiens, UniProt Q07820); assay: TR-FRET MCL-1 binding assay (competition with probe F-Bak)
GST-MCL-1, sequence (Q07820 whole entry): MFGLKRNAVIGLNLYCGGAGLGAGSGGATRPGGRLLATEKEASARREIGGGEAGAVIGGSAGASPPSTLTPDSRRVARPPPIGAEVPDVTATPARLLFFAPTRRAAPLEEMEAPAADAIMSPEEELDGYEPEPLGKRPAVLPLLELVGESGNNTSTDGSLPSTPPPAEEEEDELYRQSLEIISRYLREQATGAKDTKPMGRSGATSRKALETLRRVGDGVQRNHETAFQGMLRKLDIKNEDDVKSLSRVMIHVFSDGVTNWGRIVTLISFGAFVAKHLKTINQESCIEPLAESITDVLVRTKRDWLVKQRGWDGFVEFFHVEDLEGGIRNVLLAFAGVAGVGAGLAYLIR
How it was run: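 Test compounds, 11 three-fold dilutions from 25 μM final, incubated 2 hours at room temperature with GST-MCL-1, F-Bak probe and Tb-anti-GST antibody. TR-FRET read at 340/35 nm excitation with 520/525 and 495/510 nm emission. Run without human serum and with 10% HS.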

AMO-1 xenograft = AMO-1 xenograft model of multiple myeloma; assay type: in vivo, female SCID/bg mice; settings: 25 mg/kg/day, IP/QDx1
Procedure: Tumors were size matched at approximately 200 mm^3. […] Tumor volume was estimated two to three times weekly. […] Seven or eight mice were housed per cage. Food and water were available ad libitum.
Tumor growth inhibition is calculated by 100*(1−Tv/Cv) where Tv and Cv are the mean tumor volumes of the treated and control groups, respectively.

[3] = Homo sapiens, NCI-H929, 24 h, read-out: H929 Viability IC50 (μM, 10% FBS), 10% FBS, 24 hours of compound treatment
[4] = Homo sapiens, AMO1, 24 h, read-out: AMO-1 Viability IC50 (μM, 10% FBS), 10% FBS, 24 hours of compound treatment
[5] = MCL-1 Binding Ki (nM, 10% HS), in the presence of 10% HS (human serum)
[6] = without HS, read-out: MCL-1 Binding Ki
[7] = read-out: H929 Viability IC50 (μM, 10% FBS), 10% FBS, 24 hours of compound treatment
[8] = read-out: AMO-1 Viability IC50 (μM, 10% FBS), 10% FBS, 24 hours of compound treatment

Compound | IC50 [1, 3] [µM] | IC50 [2, 4] [nM] | Ki (GST-MCL-1; [5]) [nM] | Ki (GST-MCL-1; [6]) [nM] | TGD (%) (AMO-1 xenograft) | TGImax (%) (AMO-1 xenograft) | IC50 [1, 7] [µM] | IC50 [2, 8] [nM]
COCCOCCOCCOCCOCCOCC1(C)CC=C(c2nccc(COc3ccc4cc3C[C@H](C(=O)O)Oc3ncnc5sc(-c6ccc(F)cc6)c(c35)-c3c(C)c(Cl)c(c(Cl)c3C)O[C@H](CN3CCN(C)CC3)CO4)n2)CC1 (single isomer, unassigned) [Example 84, (7R,16R)-19,23-dichloro-1-(4-fluorophenyl)-10-({2-[(4R*)-4-(2,5,8,11,14,17-hexaoxaoctadecan-1-yl)-4-methylcyclohex-1-en-1-yl]pyrimidin-4-yl}methoxy)-20,22-dimethyl-16-[(4-methylpiperazin-1-yl)methyl]-7,8,15,16-tetrahydro-18,21-etheno-13,9-(metheno)-6,14,17-trioxa-2-thia-3,5-diazacyclononadeca[1,2,3-cd]indene-7-carboxylic Acid] | 0.000528 | 0.175 | 0.232 | 0.033 | 33* % | 71* % |  | 
COCCOCCOCC1(F)CC=C(c2nccc(COc3ccc4cc3C[C@H](C(=O)O)Oc3ncnc5sc(-c6ccc(F)cc6)c(c35)-c3c(C)c(Cl)c(c(Cl)c3C)O[C@H](CN3CCN(C)CC3)CO4)n2)CC1 (single isomer, unassigned) [Example 87, (7R,16R)-19,23-dichloro-10-({2-[(4R*)-4-fluoro-4-{[2-(2-methoxyethoxy)ethoxy]methyl}cyclohex-1-en-1-yl]pyrimidin-4-yl}methoxy)-1-(4-fluorophenyl)-20,22-dimethyl-16-[(4-methylpiperazin-1-yl)methyl]-7,8,15,16-tetrahydro-18,21-etheno-13,9-(metheno)-6,14,17-trioxa-2-thia-3,5-diazacyclononadeca[1,2,3-cd]indene-7-carboxylic Acid] |  |  | 0.068 | 0.004 | 158* % | 99* % | 0.000253 | 0.0959
COCCOCCOCCN1CCN(C[C@@H]2COc3ccc(OCc4ccnc(-c5ccccc5OC)n4)c(c3)C[C@H](C(=O)O)Oc3ncnc4sc(-c5ccc(F)cc5)c(c34)-c3ccc(c(Cl)c3C)O2)CC1 (atropisomer, axis not shown) [Example 5, (7R,16R,21S)-19-chloro-1-(4-fluorophenyl)-16-[(4-{2-[2-(2-methoxyethoxy)ethoxy]ethyl}piperazin-1-yl)methyl]-10-{[2-(2-methoxyphenyl)pyrimidin-4-yl]methoxy}-20-methyl-7,8,15,16-tetrahydro-18,21-etheno-13,9-(metheno)-6,14,17-trioxa-2-thia-3,5-diazacyclononadeca[1,2,3-cd]indene-7-carboxylic Acid] | 0.008 | 4 | 0.057 | 0.009 | 17* % | 55* % |  | 
COCCOCCOCCOCCN1CCN(C[C@@H]2COc3ccc(OCc4ccnc(-c5ccccc5OC)n4)c(c3)C[C@H](C(=O)O)Oc3ncnc4sc(-c5ccc(F)cc5)c(c34)-c3ccc(c(Cl)c3C)O2)CC1 (atropisomer, axis not shown) [Example 4, (7R,16R,21S)-19-chloro-1-(4-fluorophenyl)-10-{[2-(2-methoxyphenyl)pyrimidin-4-yl]methoxy}-20-methyl-16-{[4-(2,5,8,11-tetraoxatridecan-13-yl)piperazin-1-yl]methyl}-7,8,15,16-tetrahydro-18,21-etheno-13,9-(metheno)-6,14,17-trioxa-2-thia-3,5-diazacyclononadeca[1,2,3-cd]indene-7-carboxylic Acid] | 0.011 | 7 | 0.052 | 0.007 | 33* % | 54* % |  | 
Cc1c(Cl)c2c(Cl)c(C)c1-c1c(-c3ccc(F)cc3)sc3ncnc(c13)O[C@@H](C(=O)O)Cc1cc(ccc1OCc1ccnc(C3=CCS(=O)(=O)CC3)n1)OC[C@@H](CN1CCN(C)CC1)O2 [Example 34, (7R,16R)-19,23-dichloro-10-{[2-(1,1-dioxo-1,2,3,6-tetrahydro-1λ^6-thiopyran-4-yl)pyrimidin-4-yl]methoxy}-1-(4-fluorophenyl)-20,22-dimethyl-16-[(4-methylpiperazin-1-yl)methyl]-7,8,15,16-tetrahydro-18,21-etheno-13,9-(metheno)-6,14,17-trioxa-2-thia-3,5-diazacyclononadeca[1,2,3-cd]indene-7-carboxylic Acid] | 0.00242 | 1.23 | 0.276 | 0.016 |  |  |  | 
Cc1c(Cl)c2c(Cl)c(C)c1-c1c(-c3ccc(F)cc3)sc3ncnc(c13)O[C@@H](C(=O)O)Cc1cc(ccc1OCc1ccnc(-c3ccc(S(C)(=N)=O)cc3)n1)OC[C@@H](CN1CCN(C)CC1)O2 (stereo partly drawn) [Example 30, (7R,16R)-19,23-dichloro-1-(4-fluorophenyl)-10-({2-[4-(S-methanesulfonimidoyl)phenyl]pyrimidin-4-yl}methoxy)-20,22-dimethyl-16-[(4-methylpiperazin-1-yl)methyl]-7,8,15,16-tetrahydro-18,21-etheno-13,9-(metheno)-6,14,17-trioxa-2-thia-3,5-diazacyclononadeca[1,2,3-cd]indene-7-carboxylic Acid] | 0.00356 | 2.77 | 0.252 | 0.033 |  |  |  | 
COCCOCCOCCC1CCN(C[C@@H]2COc3ccc(OCc4ccnc(-c5ccccc5OC)n4)c(c3)C[C@H](C(=O)O)Oc3ncnc4sc(-c5ccc(F)cc5)c(c34)-c3ccc(c(Cl)c3C)O2)CC1 (atropisomer, axis not shown) [Example 21, (7R,16R,21S)-19-chloro-1-(4-fluorophenyl)-16-[(4-{2-[2-(2-methoxyethoxy)ethoxy]ethyl}piperidin-1-yl)methyl]-10-{[2-(2-methoxyphenyl)pyrimidin-4-yl]methoxy}-20-methyl-7,8,15,16-tetrahydro-18,21-etheno-13,9-(metheno)-6,14,17-trioxa-2-thia-3,5-diazacyclononadeca[1,2,3-cd]indene-7-carboxylic Acid] |  |  | 0.556 | 0.059 |  |  | 0.0102 | 14.3
